Assay [1] concerns Enterococcus faecium isolates (n = 104). The experiment in a line: microbe, parasite or virus in culture. The note with it: for MIC: read-out: Mode (MIC); for % R (percent of isolates resistant): CLSI breakpoints. As for the experimental part:
(§1) Comparator antibiotics were supplied by Micromyx, and stock solutions were prepared on the first day of testing using solvents recommended by CLSI (1). Stock solutions of all compounds were made at 40× the final testing concentration and stored at −80° C. prior to testing. Information regarding compound source, catalog and lot number, testing concentrations and drug diluent for the comparators and test agent are detailed below in Table 3.
The test organisms evaluated in this study consisted of clinical isolates from the Micromyx Repository and reference isolates from the American Type Culture Collection (ATCC; Manassas, VA). The clinical isolates were obtained from USA hospitals. Upon initial receipt at Micromyx, the organisms were sub-cultured onto an appropriate agar medium. Following incubation, colonies were harvested from these plates and cell suspensions prepared and frozen at −80° C. with a cryoprotectant. […] Plates were incubated at 35° C. overnight.
MIC values were determined using a broth microdilution procedure described by CLSI (1, 3).
(§2) The test articles and comparator compounds (300 μl at 40× the highest concentration to be tested) were dispensed into the appropriate wells in column 1. The Biomek 2000 was then used to make 2-fold serial dilutions in the mother plates from column 1 through column 11. The wells of Column 12 contained no drug and served as the organism growth control wells for the assay.
(§3) The daughter plates were completed on the Biomek FX instrument which transferred 5 μL of drug solution from each well of a mother plate to the corresponding well of each daughter plate in a single step. A standardized inoculum of each test organism was prepared per CLSI methods (1). The inoculum for each organism was dispensed into sterile reservoirs divided by length (Beckman Coulter), and the Biomek 2000 was used to inoculate the plates. Daughter plates were placed on the Biomek 2000 work surface in reverse orientation so that inoculation took place from low to high drug concentration.
(§4) Plates were stacked 3-4 high, covered with a lid on the top plate, placed in plastic bags, and incubated at 35° C. for 16 to 20 hrs. Following incubation, the microplates were removed from the incubator and viewed from the bottom using a plate viewer. […] The MIC was read and recorded as the lowest concentration of drug that inhibited visible growth of the organism.
(§5) Clinical breakpoints to determine percent resistance within a given organism group were obtained from CLSI (3), with the exception of colistin for K. pneumoniae, Enterobacter spp., and E. coli, which are only available from EUCAST.

Assay [2] deals with Staphylococcus aureus isolates (n = 104). The experiment in a line: microbe, parasite or virus in culture. Particulars: for % R (percent of isolates resistant): CLSI breakpoints. As for the experimental part:
as §1
(§6) The test organisms evaluated in this study consisted of clinical isolates from the Micromyx Repository and reference isolates from the American Type Culture Collection (ATCC; Manassas, VA). The clinical isolates were obtained from USA hospitals. Upon initial receipt at Micromyx, the organisms were sub-cultured onto an appropriate agar medium. Following incubation, colonies were harvested from these plates and cell suspensions prepared and frozen at −80° C. with a cryoprotectant. Prior to testing, the isolates were streaked from frozen vials onto Trypticase Soy Agar with 5% sheep blood (Becton Dickenson [BD]; Sparks, MD; Lot Nos. 7173618, 7166759, 7208688, 72144895, 7228505 and Remel Lenexa, KS Lot No. 212574). Plates were incubated at 35° C. overnight.
(§7) Mueller Hinton II broth (MHB II; BD; Lot Nos. 6258541 and 7143896) was used for MIC testing of aerobic organisms.
(§8) MIC values were determined using a broth microdilution procedure described by CLSI (1, 3). Automated liquid handlers (Multidrop 384, Labsystems, Helsinki, Finland; Biomek 2000 and Biomek FX, Beckman Coulter, Fullerton CA) were used to conduct serial dilutions and liquid transfers.
as §2, with “To prepare the drug mother plates, which would provide the serial drug dilutions for the replicate daughter plates, the wells of columns 2-12 of standard 96-well microdilution plates (Costar 3795) were filled with 150 μl of the designated diluent for each row of drug. The test” for “The test”
as §3, with “The daughter plates were loaded with 185 μL per well of MHB II using the Multidrop 384. The daughter” for “The daughter”
as §4, §5

In assay [3] the test system is Acinetobacter spp. isolates (n = 104). Particulars: Acinetobacter spp. (n = 104); CLSI breakpoints. As for the experimental part:
as §1, §6, §7, §8
as §2, with “To prepare the drug mother plates, which would provide the serial drug dilutions for the replicate daughter plates, the wells of columns 2-12 of standard 96-well microdilution plates (Costar 3795) were filled with 150 μl of the designated diluent for each row of drug. The test” for “The test”
as §3, with “The daughter plates were loaded with 185 μL per well of MHB II using the Multidrop 384. The daughter” for “The daughter”
as §4, §5

Assay [4] deals with Escherichia coli isolates (n = 101). The note with it: Escherichia coli (n = 101); CLSI breakpoints, colistin EUCAST. As for the experimental part: as §1, §6, §7, §8
as §2, with “To prepare the drug mother plates, which would provide the serial drug dilutions for the replicate daughter plates, the wells of columns 2-12 of standard 96-well microdilution plates (Costar 3795) were filled with 150 μl of the designated diluent for each row of drug. The test” for “The test”
as §3, with “The daughter plates were loaded with 185 μL per well of MHB II using the Multidrop 384. The daughter” for “The daughter”
as §4, §5

Assay [5] deals with Klebsiella pneumoniae isolates (n = 101). As for the experimental part: as §1, §6, §7, §8
as §2, with “To prepare the drug mother plates, which would provide the serial drug dilutions for the replicate daughter plates, the wells of columns 2-12 of standard 96-well microdilution plates (Costar 3795) were filled with 150 μl of the designated diluent for each row of drug. The test” for “The test”
as §3, with “The daughter plates were loaded with 185 μL per well of MHB II using the Multidrop 384. The daughter” for “The daughter”
as §4, §5

The subject of assay [6] is Pseudomonas aeruginosa isolates (n = 109). Particulars: Pseudomonas aeruginosa (n = 109); CLSI breakpoints. As for the experimental part: as §1, §6, §7, §8
as §2, with “To prepare the drug mother plates, which would provide the serial drug dilutions for the replicate daughter plates, the wells of columns 2-12 of standard 96-well microdilution plates (Costar 3795) were filled with 150 μl of the designated diluent for each row of drug. The test” for “The test”
as §3, with “The daughter plates were loaded with 185 μL per well of MHB II using the Multidrop 384. The daughter” for “The daughter”
as §4, §5

For assay [7], the system named is Enterobacter spp. isolates (Enterobacter aerogenes and E. cloacae, n = 102). The experiment in a line: organism not typed. Particulars: for % R (percent of isolates resistant): CLSI breakpoints, colistin EUCAST; for MIC: read-out: Mode (MIC). As for the experimental part:
as §1, §6, §7, §8
as §2, with “To prepare the drug mother plates, which would provide the serial drug dilutions for the replicate daughter plates, the wells of columns 2-12 of standard 96-well microdilution plates (Costar 3795) were filled with 150 μl of the designated diluent for each row of drug. The test” for “The test”
as §3, with “The daughter plates were loaded with 185 μL per well of MHB II using the Multidrop 384. The daughter” for “The daughter”
as §4, §5

Where [8] appears, read: Staphylococcus aureus (n = 104), all methicillin-resistant.
The mark [9] stands for this setting: Staphylococcus aureus (n = 104).
[10] abbreviates: Klebsiella pneumoniae (n = 101), CLSI breakpoints, colistin EUCAST.

≈ marks a conversion by molar mass, not a printed value. Where two headings read alike, the source gives them in different places.

`CCC[C@@H]1C[C@@H](C(=O)N[C@@H]([C@H]2O[C@H](SC)[C@H](O)[C@@H](O)[C@H]2O)[C@H](C)Cl)N(C)C1` [Clindamycin]: in assay [1] (Enterococcus faecium), the MIC50 was over 16 µg/mL, the MIC90 was over 16 µg/mL and the MIC is over 16 µg/mL. This compound showed an MIC90 in assay [2] (setting [8]) of over 16 µg/mL. The “% R (percent of isolates resistant)” value in assay [2] (setting [9]) was 37.5%.

Turning to `C[C@H]1COc2c(N3CCN(C)CC3)c(F)cc3c(=O)c(C(=O)O)cn1c23` [Levofloxacin], the results for the MIC50 in assay [1] (Enterococcus faecium) and in assay [7] were over 8 µg/mL and 0.06 µg/mL (≈ 0.166 µM), respectively. Also, the figures for the MIC90 in assay [1] (Enterococcus faecium), in assay [2] (setting [8]) and in assay [7] were over 8 µg/mL, over 8 µg/mL and 0.5 µg/mL (≈ 1.38 µM), respectively. Further, the MIC in assay [1] (Enterococcus faecium) is over 8 µg/mL; in assay [7], 0.03 µg/mL (≈ 0.083 µM). The “% R (percent of isolates resistant)” value in assay [2] (setting [9]) is 82.7%; in assay [2] (Staphylococcus aureus (n = 104), listed as levofloxacin), “Over 80%”; in assay [3], 66.3%; in assay [4], 46.5%; in assay [5], “over 60%”; in assay [5] (setting [10]), 67.3%. In addition, the figures for the “% R (percent of isolates resistant)” value in assay [6] and in assay [7] (Enterobacter spp. (n = 102)) were 21.1% and 4.9%, respectively.

Consider `C[C@H]1c2cccc(O)c2C(=O)C2=C(O)[C@]3(O)C(=O)C(C(N)=O)=C(O)[C@@H](N(C)C)[C@@H]3[C@@H](O)[C@@H]21` [Doxycycline], for which, in assay [1] (Enterococcus faecium), the MIC50 was 4 µg/mL (≈ 9 µM), the MIC90 was 16 µg/mL (≈ 36 µM) and the MIC is 0.12 µg/mL (≈ 0.27 µM). The “% R (percent of isolates resistant)” value in assay [1] (Enterococcus faecium (n = 104)) was 25%. The same compound yielded an MIC range in assay [2] (setting [8]) of 0.06 to 8 µg/mL. The “% R (percent of isolates resistant)” value in assay [2] (setting [9]) is on record as 0%.

For the compound `CN[C@H](CC(C)C)C(=O)N[C@H]1C(=O)N[C@@H](CC(N)=O)C(=O)N[C@H]2C(=O)N[C@H]3C(=O)N[C@H](C(=O)N[C@H](C(=O)O)c4cc(O)cc(O)c4-c4cc3ccc4O)[C@H](O)c3ccc(c(Cl)c3)Oc3cc2cc(c3O[C@@H]2O[C@H](CO)[C@@H](O)[C@H](O)[C@H]2O[C@H]2C[C@](C)(N)[C@H](O)[C@H](C)O2)Oc2ccc(cc2Cl)[C@H]1O` [Vancomycin], the MIC50 in assay [1] (Enterococcus faecium) and in assay [2] (Staphylococcus aureus) was 1 µg/mL (≈ 0.69 µM) in each case. Further, the MIC90 in assay [1] (Enterococcus faecium) was over 32 µg/mL; in assay [1] (Enterococcus faecium (n = 104)), over 32 µg/mL; in assay [2] (Staphylococcus aureus) it was 1 µg/mL (≈ 0.69 µM). Moreover, the “% R (percent of isolates resistant)” value in assay [1] (Enterococcus faecium (n = 104)) stood at 47.1%; in assay [2] (setting [9]) it was 0%. Further, the MIC in assay [1] (Enterococcus faecium) was over 32 µg/mL; in assay [2] (Staphylococcus aureus, read-out: Mode (MIC)), 1 µg/mL (≈ 0.69 µM). Further, the MIC range in assay [2] (setting [8]) lay in the range of 0.5 to 2 µg/mL.

For `CC(C)(O/N=C(\C(=O)N[C@@H]1C(=O)N2C(C(=O)[O-])=C(C[n+]3ccccc3)CS[C@H]12)c1csc(N)n1)C(=O)O` [Ceftazidime], the “% R (percent of isolates resistant)” value is on record as 61.5% in assay [3]; 33.6% in assay [4]; “Over 80%” in assay [5]; 80.2% in assay [5] (setting [10]); 14.6% in assay [6]; 36.3% in assay [7] (Enterobacter spp. (n = 102)). Also, the MIC50 in assay [7] amounted to 1 µg/mL (≈ 1.83 µM). In assay [7], this compound registered an MIC90 of over 32 µg/mL. For the same compound, the MIC in assay [7] is over 32 µg/mL.

As for `NC[C@H]1O[C@H](O[C@H]2[C@H](O)[C@@H](O[C@H]3O[C@H](CO)[C@@H](O)[C@H](N)[C@H]3O)[C@H](N)C[C@@H]2N)[C@H](N)C[C@@H]1O` [Tobramycin], the “% R (percent of isolates resistant)” value was 49.0% in assay [3]; 21.7% in assay [4]; “over 60%” in assay [5]; 59.4% in assay [5] (setting [10]); 7.4% in assay [6]; 3.9% in assay [7] (Enterobacter spp. (n = 102)). The MIC50 in assay [7] was 0.5 µg/mL (≈ 1.07 µM). Also, the MIC90 in assay [7] came out at 1 µg/mL (≈ 2.14 µM). This compound showed an MIC range in assay [7] (Enterobacter spp. (n = 102)) of 0.12 to 64 µg/mL. Also, the MIC in assay [7] stood at 0.5 µg/mL (≈ 1.07 µM).

For `CC(=O)NC[C@H]1CN(c2ccc(N3CCOCC3)c(F)c2)C(=O)O1` [Linezolid], in assay [1] (Enterococcus faecium), the MIC50 was 2 µg/mL (≈ 5.93 µM), the MIC90 was 4 µg/mL (≈ 11.9 µM) and the MIC was found to be 2 µg/mL (≈ 5.93 µM). Moreover, in assay [1] (Enterococcus faecium (n = 104)), the MIC range is 1 to 32 µg/mL and the “% R (percent of isolates resistant)” value stood at 3.8%. Moreover, in assay [1] (Enterococcus faecium (n = 104), listed as linezolid), the MIC range was in the range of 1 to 32 µg/mL. The same compound had an MIC range in assay [2] (setting [8]) of 1 to 8 µg/mL. For the same compound, the “% R (percent of isolates resistant)” value in assay [2] (setting [9]) is listed as 1.9%.
